Measurements taken from patent US9408850B2, “Substituted indazole derivatives active as kinase inhibitors” (NERVIANO MEDICAL SCIENCES S.R.L., priority 2011, dated 2016).
Structures can show the parent of a compound that is named as a salt.

Tests used:
[1] = target: FLT3 cytoplasmic domain (GST fused protein) (Homo sapiens (Human), UniProt P36888); assay: Biochemical assay for inhibitors of FLT3 kinase activity; settings: 2 nM pre activated enzyme, 254 microM ATP, 60 minutes at r.t.
Protocol: FLT3 cytoplasmic domain (aa 564-993end of the 993 aminoacid long full length sequence, accession number P36888 of UniProtKB/Swiss-Prot. database) was amplified by PCR starting from a testis cDNA library and then cloned into pVL vector for expression in insect cells through the baculovirus system. The GST-FLT3 cytoplasmic domain has been expressed in Sf21 cells infected for 72 hours at 27° C. The recombinant protein has been purified by affinity on GSH-sepharose and eluted with glutathione. A further purification step has been performed on heparine sepharose. […] General Principle-A specific peptidic substrate was trans-phosphorylated by the kinase in the presence of ATP traced with 33Pγ-ATP. At the end of the phosphorylation reaction, the not reacted ATP, cold and radioactive, was captured by an excess of dowex ion exchange resin that eventually settled by gravity to the bottom of the reaction plate. The supernatant was subsequently withdrawn and transferred into a counting plate that was then evaluated by β-counting. • ii. Dowex resin preparation-500 g of wet resin (SIGMA, custom prepared resin DOWEX 1×8 200-400 mesh, 2.5 Kg) were weighed out and diluted to 2 L in 150 mM sodium formate, pH 3.00. The resin was allowed to settle down overnight and then the supernatant was discarded. After three washes as above over a couple of days, the resin was allowed to settle and two volumes (with respect to the resin volume) were added of 150 mM sodium formate buffer. Biochemical Assay for Inhibitors of FLT3 Kinase Activity • i. Enzyme-The assay was performed using FLT3 cytoplasmic domain product and purified in house as GST fused protein. […] NO: 1). The peptide was purchased from American Peptide Company (Sunnyvale, Calif.). Biochemical Assay for Inhibitors of KIT Kinase Activity • i. Enzyme-The assay has been performed using KIT cytoplasmic domain product and purified in house as GST fused protein. […] NO: 2). The peptide was purchased from American Peptide Company (Sunnyvale, Calif.). Compound Testing • i. […] An automated station for serial dilutions (Biomek FX, Beckman) was used for producing 1:3 dilutions in 100% DMSO, from line A1 to A10, and for all the compounds in the column. […] The following dispensation into the plates plus 3 cycles of mixing, done by the robot itself, started the kinase reaction. At this point, the correct concentrations were restored for all the reagents. The robot incubated the plates for 60 minutes at r.t., and then stopped the reaction by pipetting 60 microL of dowex resin suspension into the reaction mix. In order to avoid tip clogging, wide bore tips were used to dispense the resin suspension. Three cycles of mixing were done immediately after the addition of the resin. Another mixing cycle was performed after all the plates were stopped, this time using normal tips: the plates were then allowed to rest for about one hour in order to allow resin sedimentation. […] Data Fitting-Data were analyzed by an internally customized version of the SW package “Assay Explorer” that provided sigmoidal fitting of the ten-dilutions curves for IC50 determination in the secondary assays/hit confirmation routines. Cell-Based Assays for Inhibitors of FLT3 Kinase Activity In vitro Cell Proliferation Assay for Inhibitors of FLT3 Kinase Activity

[2] = target: KIT cytoplasmic domain (GST fused protein) (Homo sapiens (Human), UniProt P10721); assay: Biochemical assay for inhibitors of KIT kinase activity; settings: 4 nM pre activated enzyme, 4.4 microM ATP, 60 minutes at r.t.
KIT cytoplasmic domain (GST fused protein), sequence (P10721 544-976): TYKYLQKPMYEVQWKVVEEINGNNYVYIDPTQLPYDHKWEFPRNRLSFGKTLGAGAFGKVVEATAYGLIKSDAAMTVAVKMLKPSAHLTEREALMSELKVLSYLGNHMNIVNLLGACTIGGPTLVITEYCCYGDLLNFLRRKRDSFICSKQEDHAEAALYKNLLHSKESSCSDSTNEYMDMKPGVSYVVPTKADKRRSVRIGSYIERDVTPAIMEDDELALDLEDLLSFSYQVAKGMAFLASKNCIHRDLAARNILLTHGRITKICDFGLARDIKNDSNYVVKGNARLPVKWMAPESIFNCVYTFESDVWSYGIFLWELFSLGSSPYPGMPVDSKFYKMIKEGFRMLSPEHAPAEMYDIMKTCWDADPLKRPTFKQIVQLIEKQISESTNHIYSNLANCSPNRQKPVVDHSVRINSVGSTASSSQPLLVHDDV
Protocol: KIT cytoplasmic domain (aa 544-976end of the 976 aminoacid long full length sequence, accession number P10721 of UniProtKB/Swiss-Prot database) was cloned into pVL vector for expression in insect cells through the baculovirus system. The GST-KIT cytoplasmic domain has been expressed in Sf21 cells infected for 66 hrs at 27° C. The recombinant protein has been purified by affinity on GSH-sepharose and eluted with glutathione. […] General Principle-A specific peptidic substrate was trans-phosphorylated by the kinase in the presence of ATP traced with 33Pγ-ATP. At the end of the phosphorylation reaction, the not reacted ATP, cold and radioactive, was captured by an excess of dowex ion exchange resin that eventually settled by gravity to the bottom of the reaction plate. The supernatant was subsequently withdrawn and transferred into a counting plate that was then evaluated by β-counting. • ii. Dowex resin preparation-500 g of wet resin (SIGMA, custom prepared resin DOWEX 1×8 200-400 mesh, 2.5 Kg) were weighed out and diluted to 2 L in 150 mM sodium formate, pH 3.00. The resin was allowed to settle down overnight and then the supernatant was discarded. After three washes as above over a couple of days, the resin was allowed to settle and two volumes (with respect to the resin volume) were added of 150 mM sodium formate buffer. Biochemical Assay for Inhibitors of FLT3 Kinase Activity • i. Enzyme-The assay was performed using FLT3 cytoplasmic domain product and purified in house as GST fused protein. […] The peptide was purchased from American Peptide Company (Sunnyvale, Calif.). Biochemical Assay for Inhibitors of KIT Kinase Activity • i. Enzyme-The assay has been performed using KIT cytoplasmic domain product and purified in house as GST fused protein. […] NO: 2). The peptide was purchased from American Peptide Company (Sunnyvale, Calif.). Compound Testing • i. […] An automated station for serial dilutions (Biomek FX, Beckman) was used for producing 1:3 dilutions in 100% DMSO, from line A1 to A10, and for all the compounds in the column. […] The following dispensation into the plates plus 3 cycles of mixing, done by the robot itself, started the kinase reaction. At this point, the correct concentrations were restored for all the reagents. The robot incubated the plates for 60 minutes at r.t., and then stopped the reaction by pipetting 60 microL of dowex resin suspension into the reaction mix. In order to avoid tip clogging, wide bore tips were used to dispense the resin suspension. Three cycles of mixing were done immediately after the addition of the resin. Another mixing cycle was performed after all the plates were stopped, this time using normal tips: the plates were then allowed to rest for about one hour in order to allow resin sedimentation. […] Data Fitting-Data were analyzed by an internally customized version of the SW package “Assay Explorer” that provided sigmoidal fitting of the ten-dilutions curves for IC50 determination in the secondary assays/hit confirmation routines. Cell-Based Assays for Inhibitors of FLT3 Kinase Activity In vitro Cell Proliferation Assay for Inhibitors of FLT3 Kinase Activity

FLT3 cytoplasmic domain (GST fused protein), sequence (P36888 564-993): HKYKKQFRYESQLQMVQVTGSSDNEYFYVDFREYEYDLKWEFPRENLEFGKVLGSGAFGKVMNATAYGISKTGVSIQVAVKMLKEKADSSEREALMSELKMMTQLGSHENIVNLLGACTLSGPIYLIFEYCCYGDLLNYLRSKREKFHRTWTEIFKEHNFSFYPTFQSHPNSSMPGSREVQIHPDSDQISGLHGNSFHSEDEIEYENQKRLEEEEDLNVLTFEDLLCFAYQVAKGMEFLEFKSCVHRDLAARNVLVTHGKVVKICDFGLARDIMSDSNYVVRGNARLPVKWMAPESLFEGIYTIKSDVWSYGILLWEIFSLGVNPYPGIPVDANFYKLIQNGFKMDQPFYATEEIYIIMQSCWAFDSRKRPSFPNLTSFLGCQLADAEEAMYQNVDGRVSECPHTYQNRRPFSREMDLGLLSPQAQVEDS

Compound	IC50 [1]	IC50 [2]
CN1CCN(c2ccc(C(=O)Nc3n[nH]c4cc(OCC#Cc5ccccc5)ccc34)cc2)CC1 [Cpd. 7, 4-(4-Methyl-piperazin-1-yl)-N-[6-(3-phenyl-prop-2-ynyloxy)-1H-indazol-3-yl]-benzamide]	249 nM	1500 nM
CN1CCN(c2ccc(C(=O)Nc3n[nH]c4cc(OCc5ccccc5)ccc34)cc2)CC1 [Cpd. 1, N-(6-Benzyloxy-1H-indazol-3-yl)-4-(4-methyl-piperazin-1-yl)-benzamide]	428 nM	2800 nM
CN1CCN(c2cccc(C(=O)Nc3n[nH]c4cc(OCCOCc5ccccc5)ccc34)c2)CC1 [Cpd. 29, N-[6-(2-Benzyloxy-ethoxy)-1H-indazol-3-yl]-3-(4-methyl-piperazin-1-yl)-benzamide hydrochloride]	635 nM	1080 nM
CN1CCN(c2ccc(C(=O)Nc3n[nH]c4cc(Oc5ccccc5)ccc34)cc2)CC1 [Cpd. 2, 4-(4-Methyl-piperazin-1-yl)-N-(6-phenoxy-1H-indazol-3-yl)-benzamide]	1130 nM	172 nM
CC(C)(C)OC(=O)N1CCN(c2ccc(C(=O)Nc3n[nH]c4cc(OCCOCc5ccccc5)ccc34)cc2)CC1 [Cpd. 18, 4-{4-[6-(2-Benzyloxy-ethoxy)-1H-indazol-3-ylcarbamoyl]-phenyl}-piperazine-1-carboxylic acid tert-butyl ester]	414 nM	1390 nM
CN1CCN(c2ccc(C(=O)Nc3n[nH]c4cc(OCCOCc5ccccc5)ccc34)c(F)c2)CC1 [Cpd. 38, N-[6-(2-Benzyloxy-ethoxy)-1H-indazol-3-yl]-2-fluoro-4-(4-methyl-piperazin-1-yl)-benzamide]	539 nM	613 nM
CN1CCN(c2ccc(C(=O)Nc3n[nH]c4cc(OC5CCN(Cc6ccccc6)CC5)ccc34)cc2)CC1 [Cpd. 6, N-[6-(1-Benzyl-piperidin-4-yloxy)-1H-indazol-3-yl]-4-(4-methyl-piperazin-1-yl)-benzamide]	248 nM	6890 nM
CN1CCC(Nc2ccc(C(=O)Nc3n[nH]c4cc(OCCOCc5ccccc5)ccc34)cc2)CC1 [Cpd. 19, N-[6-(2-Benzyloxy-ethoxy)-1H-indazol-3-yl]-4-(1-methyl-piperidin-4-ylamino)-benzamide]	< 50 nM	61 nM
O=C(Nc1n[nH]c2cc(OCCOCc3ccccc3)ccc12)c1ccc(NCCN2CCOCC2)cc1 [Cpd. 25, N-[6-(2-Benzyloxy-ethoxy)-1H-indazol-3-yl]-4-(2-morpholin-4-yl-ethylamino)-benzamide hydrochloride]	74 nM	197 nM
C[N+]1([O-])CCN(c2ccc(C(=O)Nc3n[nH]c4cc(OCCOCc5ccc(C(F)(F)F)cc5)ccc34)cc2)CC1 [Cpd. 42, 4-(4-Methyl-4-oxy-piperazin-1-yl)-N-{6-[2-(4-trifluoromethyl-benzyloxy)-ethoxy]-1H-indazol-3-yl}-benzamide hydrochloride]	< 50 nM	55 nM
CN1CCC(Oc2ccc(C(=O)Nc3n[nH]c4cc(OCCOCc5ccccc5)ccc34)cc2)CC1 [Cpd. 22, N-[6-(2-Benzyloxy-ethoxy)-1H-indazol-3-yl]-4-(1-methyl-piperidin-4-yloxy)-benzamide]	56 nM	55 nM
CN1CCN(c2ccc(C(=O)Nc3n[nH]c4cc(Oc5cccc(OCc6ccccc6)c5)ccc34)cc2)CC1 [Cpd. 9, N-[6-(3-Benzyloxy-phenoxy)-1H-indazol-3-yl]-4-(4-methyl-piperazin-1-yl)-benzamide]	1500 nM	713 nM
CN(C)c1ccc(C(=O)Nc2n[nH]c3cc(OCc4ccccc4)ccc23)cc1 [Ref. Compound, reference compound]	3180 nM	> 10000 nM

Next, values leading:

IC50 [1]	IC50 [2]	Compound
< 50 nM	113 nM	CN1CCN(c2ccc(C(=O)Nc3n[nH]c4cc(OCCOCc5ccccc5)ccc34)cc2)CC1 [Cpd. 11, N-[6-(2-Benzyloxy-ethoxy)-1H-indazol-3-yl]-4-(4-methyl-piperazin-1-yl)-benzamide]
< 50 nM	118 nM	C[N+]1([O-])CCN(c2ccc(C(=O)Nc3n[nH]c4cc(OCCOCc5ccccc5)ccc34)cc2)CC1 [Cpd. 14, N-[6-(2-Benzyloxy-ethoxy)-1H-indazol-3-yl]-4-(4-methyl-4-oxy-piperazin-1-yl)-benzamide]
< 50 nM	956 nM	CN1CCN(c2ccc(C(=O)Nc3n[nH]c4cc(OCCOc5ccccc5)ccc34)cc2)CC1 [Cpd. 10, 4-(4-Methyl-piperazin-1-yl)-N-[6-(2-phenoxy-ethoxy)-1H-indazol-3-yl]-benzamide]
< 50 nM	76 nM	CN(C)C1CCN(c2ccc(C(=O)Nc3n[nH]c4cc(OCCOCc5ccccc5)ccc34)cc2)CC1 [Cpd. 15, N-[6-(2-Benzyloxy-ethoxy)-1H-indazol-3-yl]-4-(4-dimethylamino-piperidin-1-yl)-benzamide]
< 50 nM	< 50 nM	CN1CCN(c2ccc(C(=O)Nc3n[nH]c4cc(OCCOCc5ccc(F)cc5)ccc34)cc2)CC1 [Cpd. 32, N-{6-[2-(4-Fluoro-benzyloxy)-ethoxy]-1H-indazol-3-yl}-4-(4-methyl-piperazin-1-yl)-benzamide]
< 50 nM	106 nM	CN(C)CCN(C)c1ccc(C(=O)Nc2n[nH]c3cc(OCCOCc4ccccc4)ccc23)cc1 [Cpd. 16, N-[6-(2-Benzyloxy-ethoxy)-1H-indazol-3-yl]-4-[(2-dimethylamino-ethyl)-methyl-amino]-benzamide]
< 50 nM	< 50 nM	CN1CCN(c2ccc(C(=O)Nc3n[nH]c4cc(OCCOCc5ccc(C(F)(F)F)cc5)ccc34)cc2)CC1 [Cpd. 33, 4-(4-Methyl-piperazin-1-yl)-N-{6-[2-(4-trifluoromethyl-benzyloxy)-ethoxy]-1H-indazol-3-yl}-benzamide]
< 50 nM	88 nM	COc1ccc(COCCOc2ccc3c(NC(=O)c4ccc(N5CCN(C)CC5)cc4)n[nH]c3c2)cc1 [Cpd. 40, N-{6-[2-(4-Methoxy-benzyloxy)-ethoxy]-1H-indazol-3-yl}-4-(4-methyl-piperazin-1-yl)-benzamide]
